# Experimental data taken from US7566733B2, “Benzimidazole derivatives useful as selective androgen receptor modulators (sarms)” (priority 2004, dated 2009).
# Test system: castrated male Sprague Dawley rats
# Test: Ventral Prostate and Seminal Vesicle Weight In Vivo Assay; also: key: active: the non weight adjusted prostate weight was ≦40 mg or the % Inhibition prostate weight, body weight adjusted was ≧40%@2 mg/day dosage; inactive: did not meet the specified criteria defined above
# Conditions: inhibition of testosterone-enhanced prostate weight; immature castrated rats, once daily for five days, usually orally 40 mg/kg, with testosterone propionate 2 mg/kg s.c.
# Procedure: Ventral Prostate and Seminal Vesicle Weight In Vivo Assay; also: key: active: the non weight adjusted prostate weight was ≦40 mg or the % Inhibition prostate weight, body weight adjusted was ≧40%@2 mg/day dosage; inactive: did not meet the specified criteria defined above
# Immature (approximately 50 g) castrated male Sprague Dawley rats (Charles River) were treated once daily for five days with test compound (usually given orally at 40 mg/kg in a volume of 0.3 mL, in 30% cyclodextrin or 0.5% methylcellulose vehicle) and with testosterone propionate (given subcutaneously by injection at the nape of the neck at 2 mg/kg, in a volume of 0.1 mL in sesame oil). On the sixth day, the rats were euthanized by asphyxiation in carbon dioxide. Ventral prosatates and seminal vesicles were removed and their wet weights determined. Test compound activity was determined as the percent inhibition of testosterone-enhanced tissue weights, with a vehicle-treated control group set to zero percent and a testosterone alone-treated control group set to 100%.
# Representative compounds of the present invention were tested according to the procedure described, with results as listed in Table 7 below. A test compound is listed as “active” if the non weight adjusted prostate weight was ≦40 mg or the % Inhibition prostate weight, body weight adjusted was ≧40%@2 mg/day dosage. ID50's, if determined, of ≦15 mg/day also indicated an “active” compound.
row,Compound,Activity
1,"OC(c1nc2cc(Cl)c(Cl)cc2[nH]1)C(F)(F)F (racemic) [Compound 59, 1-(5,6-DiChloro-1H-benzoimidazol-2-yl-)2,2,2-trifluoro-ethanol]",active
2,"ON=C(c1nc2cc(Cl)c(Cl)cc2[nH]1)C(F)(F)F (racemic) [Compound 141, 1-(5,6-Dichloro-1H-benzoimidazol-2-yl)-2,2,2-trifluoro-ethanone Oxime]",active
3,CC(O)(Cc1cccc(F)c1)c1nc2cc(Cl)c(Cl)cc2[nH]1 (centres unmarked) [Compound 3],inactive
4,CC(O)(CO)c1nc2cc(Cl)c(Cl)cc2[nH]1 (centres unmarked) [Compound 4],active
5,Cn1c(C(C)(O)CC#N)nc2cc(Cl)c(Cl)cc21 (centres unmarked) [Compound 8],active
6,Cn1c(C(C)(O)C(F)(F)F)nc2cc(Cl)c(Cl)cc21 (centres unmarked) [Compound 9],active
7,CCOCC(C)(O)c1nc2cc(Cl)c(Cl)cc2n1C (centres unmarked) [Compound 10],inactive
8,CCn1c(C(C)(O)C(F)(F)F)nc2cc(Cl)c(Cl)cc21 (centres unmarked) [Compound 13],active
9,CCCn1c(C(C)(O)C(F)(F)F)nc2cc(Cl)c(Cl)cc21 (centres unmarked) [Compound 14],active
10,CCCCn1c(C(C)(O)C(F)(F)F)nc2cc(Cl)c(Cl)cc21 (centres unmarked) [Compound 15],active
11,CCn1c(C(C)(O)CC#N)nc2cc(Cl)c(Cl)cc21 (centres unmarked) [Compound 16],active
12,CCn1c(C(C)(O)COC)nc2cc(Cl)c(Cl)cc21 (centres unmarked) [Compound 17],inactive
13,"Cn1c(C(C)(O)CCl)nc2cc(Cl)c(Cl)cc21 (centres unmarked) [Compound 18, 1-Chloro-2-(5,6-dichloro-1-methyl-1H-benzoimidazol-2-yl)-propan-2-ol]",active
14,CC(O)(c1nc2cc(Cl)c(Cl)cc2[nH]1)C(F)(F)F (centres unmarked) [Compound 20],inactive
15,"CCSCC(C)(O)c1nc2cc(Cl)c(Cl)cc2n1C (centres unmarked) [Compound 25, 2-(5,6-Dichloro-1-methyl-1H-benzoimidazol-2-yl)-1-ethylsulfanyl-propan-2-ol]",active
16,"CC(O)(Cc1nc2cc(Cl)c(Cl)cc2[nH]1)C(F)(F)F (centres unmarked) [Compound 27, 3-(5,6-Dichloro-2-1H-benzoimidazol-2-yl)-1,1,1-trifluoro-2-methyl-propan-2-ol]",active
17,COC(C)(CC#N)c1nc2cc(Cl)c(Cl)cc2n1C (centres unmarked) [Compound 28],active
18,"CCSCC(C)(O)c1nc2cc(Cl)c(Cl)cc2n1CC (centres unmarked) [Compound 31, 2-(5,6-Dichloro-1-ethyl-1H-benzoimidazol-2-yl)-1-ethylsulfanyl-propan-2-ol]",active
19,Cn1c(CC(C)(O)C(F)(F)F)nc2cc(Cl)c(Cl)cc21 (centres unmarked) [Compound 33],active
20,CCn1c(CC(C)(O)C(F)(F)F)nc2cc(Cl)c(Cl)cc21 (centres unmarked) [Compound 37],active
21,"FC(F)(F)Cc1nc2cc(Cl)c(Cl)cc2[nH]1 [Compound 41, 5,6-Dichloro-2-(2,2,2-trifluoro-ethyl)-1H-benzoimidazole]",active

row,Compound,Activity
1,"CCn1c(C(C)(O)CSCC(F)(F)F)nc2cc(Cl)c(Cl)cc21 (centres unmarked) [Compound 44, 2-(5,6-Dichloro-1-ethyl-1H-benzoimidazol-2-yl)-1-(2,2,2-trifluoro-ethylsulfanyl)-propan-2-ol]",inactive
2,"Cn1c(C(C)(O)CS(=O)(=O)Cc2ccccc2)nc2cc(Cl)c(Cl)cc21 (centres unmarked) [Compound 45, 2-(5,6-Dichloro-1-methyl-1H-benzoimidazol-2-yl)-1-phenylmethanesulfonyl-propan-2-ol]",inactive
3,"CCn1c(C(C)(O)CS(=O)(=O)CC)nc2cc(Cl)c(Cl)cc21 (centres unmarked) [Compound 48, 2-(5,6-Dichloro-1-ethyl-1H-benzoimidazol-2-yl)-1-ethanesulfonyl-propan-2-ol]",active
4,"CCn1c(C(C)(O)CS(=O)(=O)CC(F)(F)F)nc2cc(Cl)c(Cl)cc21 (centres unmarked) [Compound 49, 2-(5,6-Dichloro-1-ethyl-1H-benzoimidazol-2-yl)-1-(2,2,2-trifluoro-ethanesulfonyl)-propan-2-ol]",inactive
5,"CC(=O)Nc1ccc(SCC(C)(O)c2nc3cc(Cl)c(Cl)cc3n2C)cc1 (centres unmarked) [Compound 56, N-{4-[2-(5,6-Dichloro-1-methyl-1H-benzoimidazol-2-yl)-2-hydroxy-propylsulfanyl]-phenyl}-acetamide]",inactive
6,"COCn1c(CC(F)(F)F)nc2cc(Cl)c(Cl)cc21 [Compound 57, 5,6-Dichloro-1-methoxymethyl-2-(2,2,2-trifluoro-ethyl)-1H-benzoimidazole]",active
7,"CSCn1c(CC(F)(F)F)nc2cc(Cl)c(Cl)cc21 [Compound 58, 5,6-Dichloro-1-methylsulfanylmethyl-2-(2,2,2-trifluoro-ethyl)-1H-benzoimidazole]",active
8,COC(c1nc2cc(Cl)c(Cl)cc2n1C)C(F)(F)F (centres unmarked) [Compound 61],active
9,CCOC(c1nc2cc(Cl)c(Cl)cc2n1CC)C(F)(F)F (centres unmarked) [Compound 62],active
10,FC(F)(F)Cc1nc2cc(Cl)c(C(F)(F)F)cc2[nH]1 [Compound 68],active
11,N#Cc1cc2nc(CC(F)(F)F)[nH]c2cc1C(F)(F)F [Compound 69],inactive
12,"Cn1c(CC(F)(F)F)nc2cc(Cl)c(Cl)cc21 [Compound 71, 5,6-Dichloro-1-methyl-2-(2,2,2-trifluoro-ethyl)-1H-benzoimidazole]",active
13,FC(F)(F)Cc1nc2cc(Cl)c(Cl)cc2n1COc1ccc(Cl)cc1 [Compound 72],inactive
14,"CS(=O)(=O)Cn1c(CC(F)(F)F)nc2cc(Cl)c(Cl)cc21 [Compound 73, 5,6-Dichloro-1-methanesulfonylmethyl-2-(2,2,2-trifluoro-ethyl)-1H-benzoimidazole]",active
15,"O=C(Cn1c(CC(F)(F)F)nc2cc(Cl)c(Cl)cc21)c1ccccc1 [Compound 74, 2-[5,6-Dichloro-2-(2,2,2-trifluoro-ethyl)-benzoimidazol-1-yl]-1-phenyl-ethanone]",inactive
16,"O=C(Cn1c(CC(F)(F)F)nc2cc(Cl)c(Cl)cc21)c1ccc(F)cc1 [Compound 75, 2-[5,6-Dichloro-2-(2,2,2-trifluoro-ethyl)-benzoimidazol-1-yl]-1-(4-fluoro-phenyl)-ethanone]",active
17,"O=C(Cn1c(CC(F)(F)F)nc2cc(Cl)c(Cl)cc21)c1ccc([N+](=O)[O-])cc1 [Compound 76, 2-[5,6-Dichloro-2-(2,2,2-trifluoro-ethyl)-benzoimidazol-1-yl]-1-(4-nitro-phenyl)-ethanone]",active
18,"COc1ccc(C(=O)Cn2c(CC(F)(F)F)nc3cc(Cl)c(Cl)cc32)c(OC)c1 [Compound 77, 2-[5,6-Dichloro-2-(2,2,2-trifluoro-ethyl)-benzoimidazol-1-yl]-1-(2,4-dimethoxy-Phenyl)-ethanone]",inactive
19,"O=C(Cn1c(CC(F)(F)F)nc2cc(Cl)c(Cl)cc21)c1ccc(Br)cc1 [Compound 79, 1-(4-Bromo-phenyl)-2-[5,6-dichloro-2-(2,2,2-trifluoro-ethyl)-benzoimidazol-1-yl]-ethanone]",inactive
20,"CCC(=O)Cn1c(CC(F)(F)F)nc2cc(Cl)c(Cl)cc21 [Compound 80, 1-[5,6-Dichloro-2-(2,2,2-trifluoro-ethyl)-benzoimidazol-1-yl]-butan-2-one]",active
